The values below come from patent US8828991B2, “Azacyclyl-substituted arylthienopyrimidinones, process for their preparation and their use as medicaments” (Sanofi, priority 2006, dated 2014).

The target of the test is T1, human MCH receptor (Homo sapiens, UniProt Q99705).
T1 construct: expressed in transfected cells
Kind of test: calcium immobilization assay: functional IC50 of MCH1R antagonists (cellular calcium flux, FLIPR). Format: cell-based. The conditions noted are these: recombinant HEK293 cell line expressing the human MCH receptor, calcium flux after addition of agonist (MCH). The source says: Influence on the MCH receptor in vitro; determination of functional IC50 values of MCH1R antagonists
Cloning of the cDNA for the human MCH receptor, preparation of a recombinant HEK293 cell line which expresses the human MCH receptor, and functional measurements with the recombinant cell line took place in analogy to the description by Audinot et al. (J. Biol. Chem. 276, 13554-13562, 2001). A difference from the reference was, however, the use of the plasmid pEAK8 from EDGE Biosystems (JSA) for the construction of the expression vector. The host used for the transfection was a transformed HEK cell line named “PEAK Stable Cells” (likewise from EDGE Biosystems). Functional measurements of the cellular calcium flux after addition of agonist (MCH) in the presence of ligand of the invention took place with the aid of the FLIPR apparatus from Molecular Devices (USA), using protocols of the apparatus manufacturer. The compounds of the invention show a significant inhibition (>30%) of the signal induced by the agonist at a concentration of 100 μM, preferably at 10 μM, particularly preferably at 1 μM, very particularly preferably at 100 nM and even more particularly preferably at 10 nM.

T1 sequence (Q99705 whole entry): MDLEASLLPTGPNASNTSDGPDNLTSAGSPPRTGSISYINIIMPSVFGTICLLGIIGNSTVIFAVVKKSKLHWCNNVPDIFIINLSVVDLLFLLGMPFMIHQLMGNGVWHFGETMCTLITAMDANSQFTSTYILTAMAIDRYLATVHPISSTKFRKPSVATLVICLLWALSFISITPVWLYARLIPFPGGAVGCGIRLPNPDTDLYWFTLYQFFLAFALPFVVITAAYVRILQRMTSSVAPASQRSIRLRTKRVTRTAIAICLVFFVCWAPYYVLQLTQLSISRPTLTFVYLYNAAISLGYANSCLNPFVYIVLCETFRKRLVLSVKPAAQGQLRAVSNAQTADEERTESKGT

Broadly, the IC50 is the concentration that gives 50% inhibition. Take `C[C@@H](O)C#Cc1cc2ncn(-c3ccc(N4CC[C@@H](N5CCCC5)C4)c(F)c3)c(=O)c2s1` [Example 42]: the IC50 came out at 180 nM.

In the case of `CS(=O)(=O)CCN1CCCN(c2ccc(-n3cnc4cc(C#CC5CC5)sc4c3=O)cc2)CC1` [Example 44, 6-Cyclopropylethynyl-3-{4-[4-(2-methanesulfonyl-ethyl)-[1,4]diazepan-1-yl]-phenyl}-3H-thieno[3,2-d]pyrimidin-4-one], the IC50 came out at 740 nM.

In the case of `CN(C)C1CCN(c2ccc(-n3cnc4cc(COCC5CC5)sc4c3=O)cc2)C1` (stereo not drawn) [Example 96, 6-Cyclopropylmethoxymethyl-3-[4-(3-dimethylamino-pyrrolidin-1-yl)-phenyl]-3H-thieno[3,2-d]pyrimidin-4-one], the 50% inhibitory concentration (IC50) worked out at 600 nM.

Consider `CCO/C=C\c1cc2ncn(-c3ccc(N4CCCN(C)CC4)cc3)c(=O)c2s1` [Example 74, 6-((Z)-2-Ethoxyvinyl)-3-[4-(4-methyl[1,4]diazepan-1-yl)phenyl]-3H-thieno[3,2-d]pyrimidin-4-one], for which the IC50 was 2950 nM.

In the case of `COCC#Cc1cc2ncn(-c3ccc(N4CC[C@@H](N(C)CCS(C)(=O)=O)C4)cc3)c(=O)c2s1` [Example 39], the IC50 was 920 nM.

As to `COCCCc1cc2ncn(-c3ccc(N4CC[C@@H](N5CCCC5)C4)c(F)c3)c(=O)c2s1` [Example 61], the 50% inhibitory concentration (IC50) turned out to be 560 nM.

On to `CN(CCS(C)(=O)=O)[C@@H]1CCN(c2ccc(-n3cnc4cc(CCC5CC5)sc4c3=O)cc2)C1` [Example 50, 6-(2-Cyclopropylethyl)-3-(4-{(R)-3-[(2-methanesulfonylethyl)methylamino]pyrrolidin-1-yl}phenyl)-3H-thieno[3,2-d]pyrimidin-4-one], for which the IC50 amounted to 320 nM.

With `CCC(O)C#Cc1cc2ncn(-c3ccc(N4CC[C@@H](N(C)CCS(C)(=O)=O)C4)cc3)c(=O)c2s1` (stereo partly drawn) [Example 40], the IC50 was determined as 660 nM.

As for `CN(C)[C@@H]1CCN(c2ccc(-n3cnc4cc(C#CC5(O)CCCC5)sc4c3=O)cc2)C1` [Example 32], the concentration for half-maximal inhibition (IC50) amounted to 1350 nM.

For the compound `CN1CCCN(c2ccc(-n3cnc4cc(C(=O)C5CCCC5)sc4c3=O)cc2)CC1` [Example 76, 6-Cyclopentanecarbonyl-3-[4-(4-methyl[1,4]diazepan-1-yl)phenyl]-3H-thieno[3,2-d]pyrimidin-4-one], the 50% inhibitory concentration (IC50) was determined as 8740 nM.

Regarding `CC(C)C(O)C#Cc1cc2ncn(-c3ccc(N4CCCN(C)CC4)cc3)c(=O)c2s1` (stereo not drawn) [Example 26], the IC50 turned out to be 1100 nM.

For `CC(O)C#Cc1cc2ncn(-c3ccc(N4CC[C@@H](N(C)C)C4)cc3)c(=O)c2s1` (stereo partly drawn) [Example 30, 3-[4-((R)-3-Dimethylaminopyrrolidin-1-yl)phenyl]-6-(3-hydroxybut-1-ynyl)-3H-thieno[3,2-d]pyrimidin-4-one], the IC50 came out at 380 nM.

`COCC#Cc1cc2ncn(-c3ccc(N4CC[C@@H](N(C)C)C4)c(F)c3)c(=O)c2s1` [Example 47]: the IC50 came out at 230 nM.

As for `CCCOCc1cc2ncn(-c3ccc(N4CCC(N(C)C)C4)cc3)c(=O)c2s1` (stereo not drawn) [Example 95, 3-[4-(3-Dimethylamino-pyrrolidin-1-yl)-phenyl]-6-propoxymethyl-3H-thieno[3,2-d]pyrimidin-4-one], the 50% inhibitory concentration (IC50) worked out at 340 nM.

As for `CN1CCCN(c2ccc(-n3cnc4cc(C(O)C5CCCC5)sc4c3=O)cc2)CC1` (stereo not drawn) [Example 77, 6-(Cyclopentylhydroxymethyl)-3-[4-(4-methyl[1,4]diazepan-1-yl)phenyl]-3H-thieno[3,2-d]-pyrimidin-4-one], the concentration for half-maximal inhibition (IC50) is 9030 nM.

On to `CCC(O)CCc1cc2ncn(-c3ccc(N4CC[C@@H](N5CCCC5)C4)c(F)c3)c(=O)c2s1` (stereo partly drawn) [Example 63], for which the IC50 was 240 nM.

As for `COC(C)(C)CCc1cc2ncn(-c3ccc(N4CC[C@@H](N(C)C)C4)cc3)c(=O)c2s1` [Example 57], the IC50 worked out at 2090 nM.

As to `CN(C)[C@@H]1CCN(c2ccc(-n3cnc4cc(C#CC5CC5)sc4c3=O)cc2)C1` [Example 45, 6-Cyclopropylethynyl-3-[4-((R)-3-dimethylamino-pyrrolidin-1-yl)-phenyl]-3H-thieno[3,2-d]pyrimidin-4-one], the half-maximal inhibitory concentration (IC50) worked out at 110 nM.

Consider `CN(C)[C@@H]1CCN(c2ccc(-n3cnc4cc(N5CCCCC5)sc4c3=O)cc2)C1` [Example 65, 3-[4-((R)-3-Dimethylaminopyrrolidin-1-yl)phenyl]-6-piperidin-1-yl-3H-thieno[3,2-d]pyrimidin-4-one], for which the IC50 was 1330 nM.

On to `CC(O)C#Cc1cc2ncn(-c3ccc(N4CC[C@@H](N(C)CCS(C)(=O)=O)C4)cc3)c(=O)c2s1` (stereo partly drawn) [Example 38], for which the 50% inhibitory concentration (IC50) worked out at 440 nM.

Take `CC(O)C#Cc1cc2ncn(-c3ccc(N4CC[C@@H](N(C)C)C4)c(F)c3)c(=O)c2s1` (stereo partly drawn) [Example 49]: the 50% inhibitory concentration (IC50) was found to be 180 nM.
